{"source": "paper PMC11317440", "about": "“Soloxolone para-methylanilide effectively suppresses aggressive phenotype of glioblastoma cells including TGF-β1-induced glial-mesenchymal transition in vitro and inhibits growth of U87 glioblastoma xenografts in mice” (Frontiers in Pharmacology, 2024)", "key": {"[1]": {"test_system": "EPNT-5 glioblastoma cells", "assay": "MTT cell viability assay, EPNT-5 cells, 48 h", "format": "cell-based", "conditions": "Mus musculus", "procedure": "Cells were seeded in quadruplicate in 96-well plates at 10,000 cells/well and allowed to adhere overnight. The medium was then replaced with serum-free DMEM containing increasing concentrations of soloxolone amides for 48 h. After incubation, 3-(4,5-dimethylthiazol-2-yl)-2,5-diphenyltetrazolium bromide (MTT dye) was added at a final concentration of 0.5 mg/mL and left for 2 h. The resulting formazan crystals were dissolved in DMSO and the optical density was measured at 570 nm using a Multiscan RC plate reader (Thermo LabSystems, Helsinki, Finland)."}, "[2]": {"test_system": "U118 cells", "assay": "Colony formation assay, U118 cells", "format": "cell-based", "conditions": "Homo sapiens, 240 h, 10 days", "procedure": "(§1) U87, U118 and EPNT-5 cells were seeded at a density of 200 cells/well in 96-well plates and treated with increasing concentrations of compound 7 (0–1,000 nM) dissolved in 10% FBS-containing DMEM (n = 5). On day 10, colonies were fixed with 4% formaldehyde and stained with crystal violet dye (0.1% w/v). Images were captured using the iBright 1,500 Imaging System (Invitrogen, USA) and the area of colonies with a minimum diameter of 100 µm was calculated using ImageJ. In the case of overlapping colonies, their total area was calculated. Finally, the area of the formed cell colonies was summed and normalized to the total colony area in the control."}, "[3]": {"test_system": "aldehyde dehydrogenase (ALDH) activity in U87 primary tumorspheres", "assay": "ALDH activity in U87 tumorspheres (AldeRed, flow cytometry)", "format": "cell-based, human", "conditions": "7 at 50 and 100 nM, regardless of the dose, 4 days", "procedure": "To assess ALDH activity, U87 cells were dissociated from spheroids using TrypLE Express after 4 days of induction with compound 7 (0–100 nM) (n = 3). Cells were then stained with the AldeRed ALDH Detection Assay (SCR150; EMD Millipore, Burlington, MA, USA) according to the manufacturer’s protocol. Experimental controls included U87 cells grown in 2D culture and cells treated with the ALDH inhibitor diethylaminobenzaldehyde (DEAB). Gates of ALDH-positive cells were set according to the inhibitory effect of DEAB on control cells.\n(§2) After staining, 10,000 cells per sample were analyzed on a NovoCyte flow cytometer using NovoExpress software (ACEA Biosciences, Inc., USA)."}, "[4]": {"test_system": "SMAD2/3", "assay": "SMAD2/3 nuclear translocation (immunofluorescence), U87 cells", "format": "cell-based, human", "conditions": "U87, 7 50 nM pretreatment 48 h, TGF-β1 50 ng/mL 1 h", "procedure": "U87 cells (150,000 cells/well) were allowed to attach to glass coverslips in 24-well plates prior to 48-h incubation with compound 7 (50 nM) under serum-free conditions, followed by stimulation with TGF-β1 (50 ng/mL) for 1 h. After fixation in 4% formaldehyde for 20 min, cells were incubated with primary antibodies against Smad2/3 (1:100, ab202445) for 1 h under permeabilizing conditions (0.1% Triton X100, 5 mg/mL BSA, 37°C) and Alexa Fluor 488-conjugated secondary antibodies (1:500, ab150077) for 1 h in the dark. Finally, nuclei were stained with DAPI (1 μg/mL) for 10 min and cells were mounted on glass slides with Fluoromount-G (Thermo Fisher Scientific, Rockford, IL, USA). Images were captured using a LSM710 confocal microscope (Zeiss, Oberkochen, Germany) at ×40 magnification. Nuclear translocation was quantified by measuring the ratio of nuclear to perinuclear intensity of Alexa Fluor 488 in CellProfiler software (Broad Institute, Cambridge, MA, USA) for 50 cells per experimental group (n = 3)."}, "[5]": {"test_system": "U118 cells", "assay": "Annexin V-FITC/propidium iodide flow cytometry, U118, 48 h", "format": "cell-based, human", "procedure": "To observe apoptosis and necrosis, U87 and U118 cells were stained with Annexin V-FITC and propidium iodide (ab14085; Abcam, Inc., Cambridge, MA, USA) after 48 h of incubation with compound 7 (0–2000 nM) according to the manufacturer’s protocol (n = 3). To quantify the total proportion of apoptotic cells in control and experimental groups, the events accumulated in the lower right quadrant (early apoptosis) and upper right quadrant (late apoptosis) were summarized.\nas §2"}, "[6]": {"test_system": "U87 glioblastoma tumor tissue", "assay": "Histology and immunohistochemistry of U87 xenograft tumors", "format": "in vivo, athymic nude mice", "conditions": "day 19", "procedure": "For the histological study, the tumor specimens were fixed in 10% neutral-buffered formalin (BioVitrum, Moscow, Russia), dehydrated in ascending ethanols and xylols and embedded in HISTOMIX paraffin (BioVitrum, Russia). The paraffin sections (3–4 µm) were sliced on a Microm HM 355S microtome (Thermo Fisher Scientific, Waltham, MA, USA) and stained with hematoxylin and eosin.\nFor the immunohistochemical study, the tumor sections were deparaffinized and rehydrated. Antigen retrieval was carried out after exposure in a microwave oven at 700 W. The samples were incubated with anti-Ki-67 (ab16667, Abcam, Boston, MA, USA) (n = 3), anti-GFAP (ab194325, Abcam, USA) (n = 3), and anti-N-cadherin (ab76011, Abcam, USA) (n = 3) primary antibodies according to the manufacturer’s protocol. Then, the sections were incubated with secondary horseradish peroxidase (HPR)-conjugated antibodies, exposed to the 3,30-diaminobenzidine (DAB) substrate (Rabbit Specific HRP/DAB (ABC) Detection IHC Kit, ab64261, Abcam, USA) and stained with Mayer’s hematoxylin.\nFive to ten random fields were examined from the tumor specimens of three mice in each group, for a total of 15–30 test fields."}, "[7]": {"test_system": "TGF-β1-treated U87 cells", "assay": "ECM adhesion assay (Matrigel), U87 cells", "format": "cell-based, human", "conditions": "TGF-β1 50 ng/mL, 7 50 nM, 48 h", "procedure": "Second, to assess cell adhesion to the extracellular matrix (ECM), an ECM adhesion assay was performed according to previously published method ([Guan et al., 2015]; [Hu et al., 2019]). Briefly, U87 cells were pretreated with TGF-β1 (50 ng/mL) and compound 7 (50 nM) for 48 h, and then seeded in 96-well plates coated with Matrigel (BD Biosciences, Bedford, MA, USA) at a concentration of 30,000 cells for 1 h (n = 3). After that, the wells were washed to remove non-adherent cells, adherent cells were fixed with formaldehyde, stained with crystal violet dye, and analyzed as described above."}, "[8]": {"test_system": "EPNT-5 cells", "assay": "Colony formation assay, EPNT-5 cells", "format": "cell-based, mouse", "conditions": "10 days", "procedure": "as §1"}, "[9]": {"test_system": "U87 cells", "assay": "MTT assay 72 h, 7 and TMZ alone and combined, synergy (HSA), U87", "format": "cell-based, human", "procedure": "The drug synergy score was calculated for the dose-response matrix according to the highest single-agent (HSA) model using the SynergyFinder + web application (https://www.synergyfinder.org/)."}}, "data": [{"smiles": "Cc1ccc(NC(=O)[C@@]2(C)CC[C@]3(C)CC[C@]4(C)[C@H](C(=O)C=C5[C@@]6(C)C=C(C#N)C(=O)C(C)(C)C6CC[C@]54C)[C@@H]3C2)cc1", "note": "(stereo partly drawn) [compound 7, N-p-tolyl-2-cyano-3,12-dioxo-18βH-olean-9(11),1(2)-dien-30-amide]", "values": [{"measurement": "IC50", "setting": "[1]", "result": 257, "unit": "nM"}, {"measurement": "inhibition at 0.05 µM", "setting": "[2]; U118, 7 50 nM", "result": 26.8, "unit": "%"}, {"measurement": "inhibition at 0.1 µM", "setting": "[2]; U118, 7 100 nM", "result": 42.8, "unit": "%"}, {"measurement": "reduction of the number of ALDH+ cells compared to the control", "setting": "[3]", "result": 2.3, "unit": "fold"}, {"measurement": "reduction of nuclear-cytoplasmic ratio of SMAD2/3", "setting": "[4]", "result": 52, "unit": "%"}, {"measurement": "percentage of cells in the right quadrants (apoptosis)", "setting": "[5]; U118, 7 450 nM", "result": 82.5, "unit": "%"}, {"measurement": "percentage of cells in the right quadrants (apoptosis)", "setting": "[5]; U118, 7 1,000 nM", "result": 95.6, "unit": "%"}, {"measurement": "percentage of cells in the right quadrants (apoptosis)", "setting": "[5]; U118, 7 2000 nM", "result": 96.4, "unit": "%"}, {"measurement": "percentage of necrotic cells", "setting": "[5]; U118, at any concentration of 7 (450-2000 nM)", "result": "≤ 3.5", "unit": "%"}, {"measurement": "N-cadherin and GFAP levels in tumor sections (immunohistochemistry)", "setting": "[6]", "result": "significantly reduced their levels"}, {"measurement": "reduction in the numerical density of Ki-67-positive cells compared to vehicle", "setting": "[6]", "result": 4, "unit": "fold"}, {"measurement": "TGF-β1-induced adhesion of U87 cells to Matrigel", "setting": "[7]", "result": "effectively suppressed this induction to almost control levels"}, {"measurement": "colony growth", "setting": "[8]; EPNT-5, 7 450 nM", "result": "complete abrogation of colony growth"}, {"measurement": "colony growth", "setting": "[8]; EPNT-5, 7 1,000 nM", "result": "complete abrogation of colony growth"}, {"measurement": "inhibition at 0.05 µM", "setting": "[8]; Mus musculus, 240 h, EPNT-5, 7 50 nM", "result": 56.1, "unit": "%"}, {"measurement": "inhibition at 0.1 µM", "setting": "[8]; Mus musculus, 240 h, EPNT-5, 7 100 nM", "result": 69, "unit": "%"}, {"measurement": "IC50", "setting": "[9]; Homo sapiens, U-87 MG, MTT", "result": 197, "unit": "nM"}, {"measurement": "reduction of the cytotoxic effect by NAC", "setting": "[9]; U87, NAC 2 mM, TMZ 125 μM, 7 100 nM", "result": 56.2, "unit": "%"}]}]}
